From patent publication US20150065440A1 (Progen Pharmaceuticals Limited, priority 2007, published 2015)

How the values were obtained:
VEGF = biological target: T1, VEGF (Homo sapiens, UniProt P15692); assay: Growth factor binding assay (SPR solution affinity), VEGF; conditions: HBS-EP buffer, 25° C.
T1 sequence (P15692 207-395): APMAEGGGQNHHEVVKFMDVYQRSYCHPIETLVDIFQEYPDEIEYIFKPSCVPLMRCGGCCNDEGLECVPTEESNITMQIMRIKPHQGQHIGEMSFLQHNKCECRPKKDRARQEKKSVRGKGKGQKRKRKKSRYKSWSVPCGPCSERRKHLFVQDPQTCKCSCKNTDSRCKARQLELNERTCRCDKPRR
Method in brief: (§1)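 Kd measured by SPR solution affinity: fixed growth factor with varying ligand competing for heparin-coated sensorchip, 25 °C. Buffer HBS-EP pH 7.4 (150 mM NaCl) for FGF-1 and VEGF; FGF-2 with 0.3 M NaCl. Duplicate values averaged.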

FGF-1 = FGF-1 (Homo sapiens, UniProt P05230); assay: Growth factor binding assay (SPR solution affinity), FGF-1; conditions: SPR, HBS-EP buffer, 25° C.; read-out: Kd FGF-1
FGF-2 = FGF-2 (Homo sapiens, UniProt P09038); assay: Growth factor binding assay (SPR solution affinity), FGF-2; conditions: SPR, HBS-EP buffer containing 0.3 M NaCl, 25° C.; read-out: Kd FGF-2
Method in brief: as §1

[1] = tested on: pooled normal human plasma; assay: Anticoagulant activity, APTT; conditions: 0.1 mg/mL in normal pooled human plasma
Protocol: APTT measurements were performed on a STAGO STA-Compact Coagulation Analyser using standard protocols according to the manufacturer's instructions. Unfractionated heparin (UFH) was used as a control.

[2] = tested on: normal pooled human plasma; assay: Anticoagulant activity, Heptest; conditions: 0.1 mg/mL in normal pooled human plasma
HSV-2 = assay: Viral plaque number-reduction assay, HSV-2
Method in brief: (§2)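 200 PFU virus premixed 10 min with compound (100 μg/mL screen) and kept throughout infection. HSV plaques in GMK AH1 cells, RSV (strain A-2) in HEp-2 cells. Methylcellulose overlay, 37 °C, crystal violet staining after 2 days (HSV-2) or 3 days (HSV-1); plaque numbers counted.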

RSV = assay: Viral plaque number-reduction assay, RSV
Method in brief: as §2

[3] = biological target: T2, recombinant human heparanase (Homo sapiens, UniProt Q9Y251); assay: Heparanase inhibition assay (fondaparinux cleavage, WST-1); conditions: read-out: Ki Heparanase; IC50 converted into Ki; fondaparinux 100 μM, pH 5.0
T2 sequence (Q9Y251 158-543 limits assumed): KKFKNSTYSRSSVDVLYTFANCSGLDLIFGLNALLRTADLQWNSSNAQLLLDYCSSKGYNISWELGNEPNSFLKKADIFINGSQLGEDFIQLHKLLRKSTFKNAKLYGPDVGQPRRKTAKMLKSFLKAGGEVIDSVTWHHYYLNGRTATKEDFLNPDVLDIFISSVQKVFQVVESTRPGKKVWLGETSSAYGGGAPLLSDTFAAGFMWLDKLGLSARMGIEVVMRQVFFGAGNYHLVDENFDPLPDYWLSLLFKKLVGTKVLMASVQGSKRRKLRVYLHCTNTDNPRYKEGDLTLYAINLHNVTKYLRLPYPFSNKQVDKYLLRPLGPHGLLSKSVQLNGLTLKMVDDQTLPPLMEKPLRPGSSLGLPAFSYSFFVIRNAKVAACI
T2 sequence (Q9Y251 36-109 limits assumed): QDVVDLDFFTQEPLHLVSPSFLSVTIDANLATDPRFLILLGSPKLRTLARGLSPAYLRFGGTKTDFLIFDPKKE

FGF-2, sequence (P09038 143-288, species assumed): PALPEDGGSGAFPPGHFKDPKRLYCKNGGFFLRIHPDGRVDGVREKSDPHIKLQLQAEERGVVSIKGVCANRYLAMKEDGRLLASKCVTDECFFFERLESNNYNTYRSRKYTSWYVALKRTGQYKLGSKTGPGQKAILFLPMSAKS
FGF-1, sequence (P05230 whole entry, species assumed): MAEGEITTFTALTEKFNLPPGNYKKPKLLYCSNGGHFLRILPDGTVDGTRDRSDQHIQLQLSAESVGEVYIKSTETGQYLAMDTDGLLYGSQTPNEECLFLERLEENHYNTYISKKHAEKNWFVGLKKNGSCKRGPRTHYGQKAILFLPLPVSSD

Compound | Kd (VEGF) | Kd (FGF-1) | Kd (FGF-2) | APTT [1] | Heptest [2] | HSV-2 IC50 (HSV-2; viral plaques in GMK AH1 cells (Table 9)) | RSV IC50 (RSV; viral plaques (Table 9)) | Ki [3] | IC50 (HSV-2; Human alphaherpesvirus 2, read-out: HSV-2 IC50) | IC50 (RSV; human respiratory syncytial virus, read-out: RSV IC50)
CC(C)CCC[C@@H](C)[C@H]1CC[C@H]2[C@@H]3CCC4CC(OCc5cn([C@@H]6O[C@H](COS(=O)(=O)[O-])[C@@H](O[C@H]7O[C@H](COS(=O)(=O)[O-])[C@@H](O[C@H]8O[C@H](COS(=O)(=O)[O-])[C@@H](OS(=O)(=O)[O-])[C@H](OS(=O)(=O)[O-])[C@H]8OS(=O)(=O)[O-])[C@H](OS(=O)(=O)[O-])[C@H]7OS(=O)(=O)[O-])[C@H](OS(=O)(=O)[O-])[C@H]6OS(=O)(=O)[O-])nn5)CC[C@]4(C)[C@H]3CC[C@]12C.[Na+].[Na+].[Na+].[Na+].[Na+].[Na+].[Na+].[Na+].[Na+].[Na+] (stereo partly drawn) [Compound 70, 4-(Cholestan-3-yl-oxymethyl)[1,2,3]triazol-1-yl 2,3,4,6-tetra-O-sodium sulfonato-α-D-glucopyranosyl-(1→4)-2,3,6-tri-O-sodium sulfonato-α-D-glucopyranosyl-(1→4)-1-deoxy-2,3,6-tri-O-sodium sulfonato-β-D-glucopyranoside] | 95 ± 8 nM | 9.7 ± 0.8 nM | 390 ± 90 nM | 104.0 s | 45.5 s | 0.15 µg/mL | 0.23 µg/mL | 3.7 ± 0.8 nM | – | –
CC(C)CCC[C@@H](C)[C@H]1CC[C@H]2[C@@H]3CC[C@H]4C[C@@H](O[C@H]5O[C@H](COS(=O)(=O)O)[C@@H](OS(=O)(=O)O)[C@H](OS(=O)(=O)O)[C@@H]5O[C@H]5O[C@H](COS(=O)(=O)O)[C@@H](OS(=O)(=O)O)[C@H](OS(=O)(=O)O)[C@@H]5OS(=O)(=O)O)CC[C@]4(C)[C@H]3CC[C@]12C [Compound 33, 3β-Cholestanyl 2,3,4,6-tetra-O-sodium sulfonato-α-D-mannopyranosyl-(1→2)-3,4,6-tri-O-sodium sulfonato-α-D-mannopyranoside] | 1300 ± 300 nM | 270 ± 30 nM | 1570 ± 150 nM | 40.6 s | 25.5 s | – | – | 22.3 ± 1.6 nM | 0.7 µg/mL | 1.8 µg/mL
